{
  "source": "patent US20120135917A1",
  "about": "“Anti-Gram Negative Bacteria Agent” (priority 2009, published 2012)",
  "key": {"[1]": {"system": "Clinical isolates (strains 24, 42, 83, 88 and 92 of P. aeruginosa), strain nalB, strain nfxC", "conditions": "3 mM LTLR, polymyxin B 0.2 μg/mL", "procedure": "In Examples and the like described below, the number of viable cells of Gram-negative bacteria (Pseudomonas aeruginosa or Escherichia coli) is measured as follows. A portion of bacteria cultured at 37° C. overnight is added to a fresh MH medium and continues to be cultured at the same temperature. When the turbidity (absorbance at 600 nm) of the bacteria reaches 0.7-0.8, the bacterial solution is added an MH medium to prepare a bacterial solution diluted 1:100-200, which is used for experimental purposes. A solution in which 60-80 μL of the bacterial solution was added to a solution of a peptide and the like to a final amount of 100 μL is cultured for a certain time (3 hours) while stirring at 37° C. After culture, the bacterial solution was diluted with a PBS solution, and the diluted solution is seeded on an MH agar plate and cultured at 37° C. overnight. The following day, the number of colonies grown on the plate is counted to determine the number of viable bacterial cells.\nClinical isolates (strains 24, 42, 83, 88 and 92 of P. aeruginosa), strain nalB (a strain having acquired high multidrug resistance by highly expressing MexAB-OprM as a drug efflux pump), and strain nfxC (a strain having acquired high multidrug resistance by highly expressing MexEF-OprN as a drug efflux pump) were used in place of the strain PA01 (standard strain) of Pseudomonas aeruginosa used in Example 1 to measure the action of LTLR thereon. In this experiment, the final concentration of polymyxin B was set at 0.2 μg/mL with 3 mM LTLR added to examine changes in the survival rate thereof."}, "Escherichia coli": {"system": "Escherichia coli", "assay": "Viable cell count of Escherichia coli with peptide and polymyxin B", "assay_type": "cell-based", "conditions": "ATCC25922; 3 mM LTLR; polymyxin B 0.2 μg/mL", "procedure": "Escherichia coli (ATCC25922) was used in place of Pseudomonas aeruginosa for the same measurement as in Example 2.\nLTLR whose carboxy terminal was amidated was synthesized to examine the action thereof. Under the same conditions as those in Example 1, various concentrations of the amidated LTLR were added to examine changes in the survival rate of Pseudomonas aeruginosa."}, "[2]": {"system": "Pseudomonas aeruginosa (strain PAO1)", "assay": "Viable cell count of Pseudomonas aeruginosa strain PAO1 cultured with peptide and polymyxin B", "assay_type": "cell-based", "conditions": "0.4 μg/mL polymyxin B", "procedure": "At this time, the culture was performed under conditions in which various concentrations of a peptide, LTLR (a peptide consisting of 4 amino acid residues, having the sequence leucine-threonine-leucine-arginine) were added. Under each condition, the number of viable cells of Pseudomonas aeruginosa was measured, and it was measured how the addition of the peptide changes the number of the viable cells compared to the number of the viable cells for no addition of the peptide. The results are shown in the graph of FIG. 4(A)."}},
  "note": "Like-named read-outs stand apart in the source and are kept apart here.",
  "data": [
    {"substance": "leucine-threonine-leucine-arginine [LTLR]", "values": [
      {"measurement": "Survival Rate (%)", "setting": "[1]; P. aeruginosa 24", "result": 0, "unit": "%"},
      {"measurement": "Survival Rate (%)", "setting": "[1]; P. aeruginosa 42", "result": 43, "unit": "%"},
      {"measurement": "Survival Rate (%)", "setting": "[1]; P. aeruginosa 83", "result": 0, "unit": "%"},
      {"measurement": "Survival Rate (%)", "setting": "[1]; P. aeruginosa 88", "result": 25, "unit": "%"},
      {"measurement": "Survival Rate (%)", "setting": "[1]; P. aeruginosa 92", "result": 9, "unit": "%"},
      {"measurement": "Survival Rate (%)", "setting": "[1]; strain nalB (highly expressing MexAB-OprM)", "result": 0, "unit": "%"},
      {"measurement": "Survival Rate (%)", "setting": "[1]; strain nfxC (highly expressing MexEF-OprN)", "result": 1, "unit": "%"},
      {"measurement": "survival rate of Escherichia coli", "setting": "Escherichia coli", "result": "about 1%"},
      {"measurement": "survival rate of Pseudomonas aeruginosa", "setting": "[2]; 2.5 mM peptide, 3 hours culture, vs no addition of peptide", "result": "~0", "unit": "%"},
      {"measurement": "change in survival rate of Pseudomonas aeruginosa", "setting": "[2]; various concentrations of peptide", "result": "decreased in a manner dependent on the concentration"}
    ]}
  ]
}
